How the values were obtained:
[1] = biological target: Serine/threonine-protein kinase SIK1 (Homo sapiens) (UniProt P57059); test: Inhibition of SIK Lys2 labeling site in human Huh-7 cell lysate at 1 uM by KiNativ Profiling analysis relative to control; type: subcellular
[2] = biological target: Serine/threonine-protein kinase 4 (Homo sapiens) (UniProt Q13043); test: Inhibition of MST1 Lys1 labeling site harbouring AIHKETGQIVAIKQVPVESDLQEIIK in human Huh-7 cell lysate at 1 uM by KiNativ Profiling analysis relative to control
[3] = biological target: Calcium-dependent protein kinase 1 (Plasmodium falciparum) (UniProt P62344); test: Inhibition of Plasmodium falciparum PFCDPK1 at 1 uM by Ambit Kinomescan binding assay relative to control; values are per cent of control
[4] = biological target: Protein kinase C eta type (Homo sapiens) (UniProt P24723); test: Inhibition of PRKCH (unknown origin) at 1 uM by Ambit Kinomescan binding assay relative to control; values are per cent of control
[5] = biological target: Cyclin-dependent kinase 13 (Homo sapiens) (UniProt Q14004); test: Inhibition of CDC2L5 (unknown origin) at 1 uM by Ambit Kinomescan binding assay relative to control
[6] = biological target: Serine/threonine-protein kinase 16 (Homo sapiens) (UniProt O75716); test: Inhibition of MPSK1 K2 labeling site in human Huh-7 cells at 10 uM by KiNativ Profiling analysis relative to control; type: cell-based
[7] = biological target: Tyrosine-protein kinase JAK1 (Homo sapiens) (UniProt P23458); test: Inhibition of JAK1 Domain 2 ACT labeling site harbouring IGDFGLTKAIETDKEYYTVK in human Huh-7 cells at 1 uM by KiNativ Profiling analysis relative to control; type: cell-based
[8] = biological target: Myosin light chain kinase, smooth muscle (Homo sapiens) (UniProt Q15746); test: Inhibition of smMLCK K1 labeling site in human Huh-7 cells at 10 uM by KiNativ Profiling analysis relative to control; type: cell-based
[9] = biological target: Serine/threonine-protein kinase 25 (Homo sapiens) (UniProt O00506); test: Inhibition of YSK1 ATP labeling site in human Huh-7 cells at 1 uM by KiNativ Profiling analysis relative to control; type: cell-based
[10] = biological target: T1, Mitogen-activated protein kinase kinase kinase 15 (Homo sapiens) (UniProt Q6ZN16); test: Inhibition of MAP3K15 Lys1 labeling site harbouring IAIKEIPERDSR in human A-375 cells at 5 uM by KiNativ Profiling analysis relative to control; type: cell-based
T1 sequence (whole entry): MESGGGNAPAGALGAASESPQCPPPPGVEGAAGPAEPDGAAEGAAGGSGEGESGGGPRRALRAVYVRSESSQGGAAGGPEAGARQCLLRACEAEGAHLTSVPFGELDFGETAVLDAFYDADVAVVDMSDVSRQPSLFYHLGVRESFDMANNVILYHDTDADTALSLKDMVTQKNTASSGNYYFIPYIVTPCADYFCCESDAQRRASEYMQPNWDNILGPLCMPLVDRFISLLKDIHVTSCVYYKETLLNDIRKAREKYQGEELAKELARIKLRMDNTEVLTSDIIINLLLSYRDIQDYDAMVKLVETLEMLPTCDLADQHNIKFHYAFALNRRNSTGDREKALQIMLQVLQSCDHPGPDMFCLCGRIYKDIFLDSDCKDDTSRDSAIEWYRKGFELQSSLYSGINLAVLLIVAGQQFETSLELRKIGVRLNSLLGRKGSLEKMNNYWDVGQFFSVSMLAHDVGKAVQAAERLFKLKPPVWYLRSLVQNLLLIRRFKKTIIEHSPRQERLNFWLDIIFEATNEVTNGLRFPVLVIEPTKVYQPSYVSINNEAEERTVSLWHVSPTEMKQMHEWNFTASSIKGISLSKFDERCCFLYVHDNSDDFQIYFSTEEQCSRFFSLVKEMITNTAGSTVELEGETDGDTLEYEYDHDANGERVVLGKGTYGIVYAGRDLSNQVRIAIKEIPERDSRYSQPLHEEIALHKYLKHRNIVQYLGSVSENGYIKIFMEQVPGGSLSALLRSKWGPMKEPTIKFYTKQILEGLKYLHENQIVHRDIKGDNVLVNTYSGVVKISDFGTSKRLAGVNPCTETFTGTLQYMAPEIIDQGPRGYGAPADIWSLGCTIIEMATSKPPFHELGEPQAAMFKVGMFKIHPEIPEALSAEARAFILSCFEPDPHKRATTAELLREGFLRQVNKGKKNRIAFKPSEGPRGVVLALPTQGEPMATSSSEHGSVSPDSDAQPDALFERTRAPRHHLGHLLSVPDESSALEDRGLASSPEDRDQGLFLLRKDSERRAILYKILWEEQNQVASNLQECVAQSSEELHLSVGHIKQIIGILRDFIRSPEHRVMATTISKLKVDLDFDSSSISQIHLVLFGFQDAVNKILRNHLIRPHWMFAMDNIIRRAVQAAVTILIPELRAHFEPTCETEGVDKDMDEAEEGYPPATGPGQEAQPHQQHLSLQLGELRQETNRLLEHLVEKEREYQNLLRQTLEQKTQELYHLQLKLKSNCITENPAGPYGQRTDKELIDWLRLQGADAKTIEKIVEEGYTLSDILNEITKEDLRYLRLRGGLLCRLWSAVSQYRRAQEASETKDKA

Cyclin-dependent kinase 13 (Homo sapiens), sequence (Q14004 whole entry, looked up): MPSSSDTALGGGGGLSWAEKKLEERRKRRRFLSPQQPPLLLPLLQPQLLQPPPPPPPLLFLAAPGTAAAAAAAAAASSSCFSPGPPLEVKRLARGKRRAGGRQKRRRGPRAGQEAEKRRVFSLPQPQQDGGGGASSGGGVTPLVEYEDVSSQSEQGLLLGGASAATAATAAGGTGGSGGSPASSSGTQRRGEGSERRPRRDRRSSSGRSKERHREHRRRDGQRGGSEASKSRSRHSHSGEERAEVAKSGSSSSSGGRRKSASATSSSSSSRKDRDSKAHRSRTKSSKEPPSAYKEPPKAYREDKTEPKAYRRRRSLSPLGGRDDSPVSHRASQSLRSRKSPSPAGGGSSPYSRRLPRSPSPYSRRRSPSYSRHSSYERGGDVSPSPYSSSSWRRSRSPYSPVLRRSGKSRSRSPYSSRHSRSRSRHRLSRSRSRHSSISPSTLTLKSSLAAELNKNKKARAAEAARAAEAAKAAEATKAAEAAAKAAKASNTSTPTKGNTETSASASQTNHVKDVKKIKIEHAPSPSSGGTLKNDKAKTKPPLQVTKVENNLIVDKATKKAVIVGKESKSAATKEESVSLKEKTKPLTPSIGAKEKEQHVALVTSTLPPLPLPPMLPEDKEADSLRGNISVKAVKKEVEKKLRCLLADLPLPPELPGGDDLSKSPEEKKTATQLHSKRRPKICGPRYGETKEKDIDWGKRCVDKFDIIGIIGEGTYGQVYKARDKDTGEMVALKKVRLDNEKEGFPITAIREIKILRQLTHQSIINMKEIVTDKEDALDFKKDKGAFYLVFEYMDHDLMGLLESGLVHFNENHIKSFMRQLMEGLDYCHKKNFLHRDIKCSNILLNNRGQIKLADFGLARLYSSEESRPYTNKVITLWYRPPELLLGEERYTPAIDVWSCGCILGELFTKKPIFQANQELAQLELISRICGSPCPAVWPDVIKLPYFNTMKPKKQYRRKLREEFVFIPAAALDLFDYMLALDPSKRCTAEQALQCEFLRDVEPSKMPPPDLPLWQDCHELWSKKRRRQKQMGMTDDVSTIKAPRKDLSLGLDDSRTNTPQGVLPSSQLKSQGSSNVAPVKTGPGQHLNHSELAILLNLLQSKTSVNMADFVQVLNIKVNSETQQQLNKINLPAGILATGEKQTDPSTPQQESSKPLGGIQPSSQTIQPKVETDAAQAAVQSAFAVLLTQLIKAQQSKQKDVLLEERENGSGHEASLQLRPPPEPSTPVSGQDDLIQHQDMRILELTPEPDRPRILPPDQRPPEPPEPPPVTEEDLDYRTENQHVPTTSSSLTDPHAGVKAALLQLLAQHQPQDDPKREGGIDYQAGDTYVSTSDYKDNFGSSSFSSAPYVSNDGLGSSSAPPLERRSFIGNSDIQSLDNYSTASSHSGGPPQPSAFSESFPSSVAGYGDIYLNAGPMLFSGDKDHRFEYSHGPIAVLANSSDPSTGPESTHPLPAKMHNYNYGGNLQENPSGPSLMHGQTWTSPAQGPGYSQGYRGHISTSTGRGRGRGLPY
Serine/threonine-protein kinase 4 (Homo sapiens), sequence (Q13043 whole entry, looked up): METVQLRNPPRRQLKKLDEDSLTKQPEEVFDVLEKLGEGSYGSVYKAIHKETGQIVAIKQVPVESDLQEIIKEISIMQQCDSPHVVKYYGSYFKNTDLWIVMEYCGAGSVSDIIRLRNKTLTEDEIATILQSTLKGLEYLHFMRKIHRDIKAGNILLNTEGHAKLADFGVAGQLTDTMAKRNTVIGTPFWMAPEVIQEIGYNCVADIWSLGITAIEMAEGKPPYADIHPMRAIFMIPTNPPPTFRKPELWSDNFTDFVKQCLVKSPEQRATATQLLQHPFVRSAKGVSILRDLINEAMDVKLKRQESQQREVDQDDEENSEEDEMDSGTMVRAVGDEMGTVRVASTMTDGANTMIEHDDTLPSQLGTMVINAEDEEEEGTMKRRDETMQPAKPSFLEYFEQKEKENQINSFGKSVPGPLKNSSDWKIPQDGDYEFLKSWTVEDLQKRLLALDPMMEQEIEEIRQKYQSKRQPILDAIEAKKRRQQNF
Tyrosine-protein kinase JAK1 (Homo sapiens), sequence (P23458 whole entry, the tested form may be a part): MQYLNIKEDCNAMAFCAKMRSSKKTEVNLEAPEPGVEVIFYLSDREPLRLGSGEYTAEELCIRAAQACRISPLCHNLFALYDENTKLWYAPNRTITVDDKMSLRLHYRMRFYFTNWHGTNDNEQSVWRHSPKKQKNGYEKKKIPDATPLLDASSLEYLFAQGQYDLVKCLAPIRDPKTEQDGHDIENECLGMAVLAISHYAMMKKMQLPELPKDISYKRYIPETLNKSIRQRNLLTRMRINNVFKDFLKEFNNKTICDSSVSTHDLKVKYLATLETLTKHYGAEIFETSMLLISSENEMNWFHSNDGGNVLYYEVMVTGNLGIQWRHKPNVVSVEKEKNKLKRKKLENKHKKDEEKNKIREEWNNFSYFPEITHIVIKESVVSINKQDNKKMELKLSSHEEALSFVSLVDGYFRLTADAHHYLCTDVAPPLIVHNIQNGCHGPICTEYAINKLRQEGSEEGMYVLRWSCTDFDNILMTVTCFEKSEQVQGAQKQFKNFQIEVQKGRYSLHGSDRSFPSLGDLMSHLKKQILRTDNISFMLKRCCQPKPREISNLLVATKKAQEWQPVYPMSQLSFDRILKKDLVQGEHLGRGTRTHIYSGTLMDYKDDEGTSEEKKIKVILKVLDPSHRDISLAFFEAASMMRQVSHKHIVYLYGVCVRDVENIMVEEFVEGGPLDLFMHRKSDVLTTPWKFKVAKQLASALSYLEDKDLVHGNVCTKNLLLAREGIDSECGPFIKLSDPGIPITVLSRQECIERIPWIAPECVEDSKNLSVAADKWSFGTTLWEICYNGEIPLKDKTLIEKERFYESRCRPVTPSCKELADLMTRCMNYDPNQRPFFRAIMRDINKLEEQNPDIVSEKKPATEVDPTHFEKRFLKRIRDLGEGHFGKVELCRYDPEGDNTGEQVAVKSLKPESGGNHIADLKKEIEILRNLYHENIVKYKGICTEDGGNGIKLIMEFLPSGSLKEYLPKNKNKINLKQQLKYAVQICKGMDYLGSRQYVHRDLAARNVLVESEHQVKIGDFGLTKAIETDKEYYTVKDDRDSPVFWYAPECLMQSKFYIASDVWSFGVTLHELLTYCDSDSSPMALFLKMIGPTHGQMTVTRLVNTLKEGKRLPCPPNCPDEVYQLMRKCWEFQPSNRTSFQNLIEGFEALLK
Serine/threonine-protein kinase 16 (Homo sapiens), sequence (O75716 whole entry, the tested form may be a part): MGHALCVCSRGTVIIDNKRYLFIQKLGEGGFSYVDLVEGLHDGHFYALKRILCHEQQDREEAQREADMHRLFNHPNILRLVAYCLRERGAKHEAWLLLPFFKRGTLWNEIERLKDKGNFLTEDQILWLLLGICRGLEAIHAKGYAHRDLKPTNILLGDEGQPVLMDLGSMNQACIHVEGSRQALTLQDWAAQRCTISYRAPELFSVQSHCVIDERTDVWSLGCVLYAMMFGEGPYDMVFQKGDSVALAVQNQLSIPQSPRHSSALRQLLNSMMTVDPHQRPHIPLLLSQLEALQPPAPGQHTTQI
Serine/threonine-protein kinase 25 (Homo sapiens), sequence (O00506 whole entry, looked up): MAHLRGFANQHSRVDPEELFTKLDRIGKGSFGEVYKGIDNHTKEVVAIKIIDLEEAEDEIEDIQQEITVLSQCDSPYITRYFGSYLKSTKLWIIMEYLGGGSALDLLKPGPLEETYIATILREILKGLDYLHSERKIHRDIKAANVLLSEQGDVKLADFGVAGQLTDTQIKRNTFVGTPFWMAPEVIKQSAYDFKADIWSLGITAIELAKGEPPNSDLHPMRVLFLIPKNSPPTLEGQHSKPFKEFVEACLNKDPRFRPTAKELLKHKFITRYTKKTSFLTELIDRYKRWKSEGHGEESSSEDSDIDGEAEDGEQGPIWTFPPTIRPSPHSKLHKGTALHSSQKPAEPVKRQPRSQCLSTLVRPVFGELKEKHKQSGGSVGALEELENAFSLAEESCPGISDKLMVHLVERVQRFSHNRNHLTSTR
Serine/threonine-protein kinase SIK1 (Homo sapiens), sequence (P57059 whole entry): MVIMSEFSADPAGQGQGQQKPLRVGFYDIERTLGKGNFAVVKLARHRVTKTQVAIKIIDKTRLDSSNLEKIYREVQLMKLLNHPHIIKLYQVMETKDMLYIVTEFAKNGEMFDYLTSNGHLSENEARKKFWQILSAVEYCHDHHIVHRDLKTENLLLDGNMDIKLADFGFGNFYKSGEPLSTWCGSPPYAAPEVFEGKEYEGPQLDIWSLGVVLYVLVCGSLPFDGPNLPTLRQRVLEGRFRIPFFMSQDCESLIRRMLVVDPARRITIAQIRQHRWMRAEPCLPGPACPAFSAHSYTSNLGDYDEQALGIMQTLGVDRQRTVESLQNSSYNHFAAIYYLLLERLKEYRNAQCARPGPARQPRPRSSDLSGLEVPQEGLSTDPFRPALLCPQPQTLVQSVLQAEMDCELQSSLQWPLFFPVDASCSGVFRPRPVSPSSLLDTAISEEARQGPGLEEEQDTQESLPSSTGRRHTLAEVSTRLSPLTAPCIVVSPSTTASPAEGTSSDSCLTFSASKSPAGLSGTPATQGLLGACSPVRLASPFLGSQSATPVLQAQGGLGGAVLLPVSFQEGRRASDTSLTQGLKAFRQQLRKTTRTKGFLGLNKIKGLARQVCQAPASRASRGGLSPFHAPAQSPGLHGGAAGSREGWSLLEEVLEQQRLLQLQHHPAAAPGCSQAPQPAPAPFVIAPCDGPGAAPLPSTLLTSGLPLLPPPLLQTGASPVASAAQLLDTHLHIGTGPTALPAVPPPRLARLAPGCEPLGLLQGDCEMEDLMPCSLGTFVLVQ

SMILES: CNc1cc(Oc2cc(C(=O)Nc3cc(N4CCN(C)CC4)cc(C(F)(F)F)c3)ccc2C)ncn1
- inhibition [1]: -1.3%
- inhibition [2]: 12.8%

SMILES: CCN1CCN(Cc2ccc(NC(=O)c3ccc(C)c(/C=C/c4cnc5[nH]ccc5c4OC)c3)cc2C(F)(F)F)CC1
- residual activity [3]: 4.3%
- residual activity [4]: 100%
- inhibition [5]: 100%

SMILES: CCN1CCN(Cc2ccc(NC(=O)c3ccc(C)c(Oc4ccnc5[nH]ccc45)c3)cc2C(F)(F)F)CC1
- inhibition [6]: 19.2%
- inhibition [7]: -6.4%
- inhibition [8]: -9%
- inhibition [9]: 18%
- inhibition [10]: -3.2%
